Assay results taken from paper PMC2443152, “Molecular evolution of B6 enzymes: Binding of pyridoxal-5'-phosphate and Lys41Arg substitution turn ribonuclease A into a model B6 protoenzyme” (BMC Biochemistry, 2008).
Residue numbers refer to the chain shown, from its start. Like-named read-outs stand apart in the source and are kept apart here.

Experiments:
[1] = target: T1, bovine pancreatic ribonuclease A (RNase) (Bos taurus, UniProt P61823, K67R); test: intrinsic (tyrosine) fluorescence quenching titration, nonlinear regression; format: binding
T1 construct: gene RNASE1; mature RNase A; recombinant from pET22b(+) NdeI/HindIII in E. coli BL21 (wild type also from bovine pancreas, Sigma type II); no tag mentioned
T1 sequence (P61823 27-150 K67R): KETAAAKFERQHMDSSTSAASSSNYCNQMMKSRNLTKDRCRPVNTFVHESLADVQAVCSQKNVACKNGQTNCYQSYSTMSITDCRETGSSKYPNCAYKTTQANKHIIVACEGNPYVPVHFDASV
Text: (§1) intrinsic (tyrosine) fluorescence quenching titration, nonlinear regression on bovine pancreatic ribonuclease A (RNase)

[2] = target: T2, bovine pancreatic ribonuclease A (RNase) (Bos taurus, UniProt P61823); test: as above; format: binding; conditions: read-out: Wild-type
T2 construct: gene RNASE1; mature RNase A; recombinant from pET22b(+) NdeI/HindIII in E. coli BL21 (wild type also from bovine pancreas, Sigma type II); no tag mentioned
T2 sequence (P61823 27-150): T1 sequence (P61823 27-150 K67R) with R41K
Text: as §1

Kd ([1]; read-out: K41R) [µM] | Kd [2] [µM] | Kd ([1]; read-out: Wild-type) [µM] | Structure (SMILES)
140 ± 10 | 120 ± 5 | – | Cc1ncc(COP(=O)(O)O)c(C=O)c1O [PLP]
107 ± 3 | 106 ± 5 | – | Cc1ncc(COP(=O)(O)O)c(CN)c1O [PMP]
40 ± 3 | 45 ± 1 | – | Cc1ncc(COP(=O)(O)O)c(CN[C@H](C)C(=O)O)c1O [PPL-D-alanine]
– | 23 ± 1 | 23 ± 1 | Cc1ncc(COP(=O)(O)O)c(CN[C@@H](C)C(=O)O)c1O [PPL-L-alanine]
